Source: ChEMBL document CHEMBL3885861, “Open TG-GATES”

Species on record: Rattus norvegicus
Experiment: Open TG-GATES - Regimen: Single
Format: toxicity, organism-based, Sprague-Dawley
Parameters: regimen Single, gender Male, age 6 weeks
Conditions: in vivo, po, route gavage; for gamma-GTP / ALP / ALT / AST / BUN / Ca / Cl / DBIL / GLC / IP / K / LDH / Na / PL / RALB / TBIL / TC / TP / CRE: tissue Plasma; for APTT / Bas / Eos / Fbg / Hb / Ht / Lym / MCH / MCHC / MCV / Mono / Neu / PT / Plat / RBC / Ret / WBC: tissue Blood; for KIDNEY_L / KIDNEY_R / KIDNEY_TOTAL: tissue Kidney; for LIVER: tissue Liver
[1] = 15 mg/kg, 24 h, dose level High
[2] = 50 mg/kg, 3 h, dose level Middle
[3] = 50 mg/kg, 6 h, dose level Middle

SMILES: O=P1(N(CCCl)CCCl)NCCCO1 (stereo unspecified) [CYCLOPHOSPHAMIDE ANHYDROUS]
- gamma-GTP (15 mg/kg, 9 h, dose level High): 1 IU/L
- ALP (15 mg/kg, 9 h, dose level Low): 1388.6 IU/L
- ALT (15 mg/kg, 9 h, dose level Low): 31.2 IU/L
- AST (15 mg/kg, 9 h, dose level Low): 67.6 IU/L
- BUN (15 mg/kg, 9 h, dose level Low): 8.2 mg/dL
- Ca (15 mg/kg, 9 h, dose level Low): 10.6 mg/dL
- Cl (15 mg/kg, 9 h, dose level Low): 106.6 meq/L
- DBIL (15 mg/kg, 9 h, dose level Low): 0.012 mg/dL
- GLC (15 mg/kg, 9 h, dose level Low): 163.8 mg/dL
- IP (15 mg/kg, 9 h, dose level Low): 10.3 mg/dL
- K (15 mg/kg, 9 h, dose level Low): 4.4 meq/L
- LDH (15 mg/kg, 9 h, dose level Low): 55.2 IU/L
- Na (15 mg/kg, 9 h, dose level Low): 142.2 meq/L
- PL (15 mg/kg, 9 h, dose level Low): 135.8 mg/dL
- RALB (15 mg/kg, 9 h, dose level Low): 2.5 g/dL
- TBIL (15 mg/kg, 9 h, dose level Low): 0.058 mg/dL
- TC (15 mg/kg, 9 h, dose level Low): 77.4 mg/dL
- TP (15 mg/kg, 9 h, dose level Low): 5.2 g/dL
- gamma-GTP (15 mg/kg, 9 h, dose level Low): 1.2 IU/L
- TERMINAL_BW [1]: 195.1 g
- TERMINAL_BW (15 mg/kg, 24 h, dose level Low): 205.2 g
- APTT [1]: 21.5 s
- Bas [1]: 0%
- Eos [1]: 0.8%
- Fbg [1]: 304 mg/dL
- Hb [1]: 13.6 g/dL
- Ht [1]: 40.8%
- Lym [1]: 88.2%
- MCH [1]: 21.2 pg
- MCHC [1]: 33.4%
- MCV [1]: 63.5 fL
- Mono [1]: 2.4%
- Neu [1]: 8%
- PT [1]: 16.2 s
- Plat [1]: 117.1 x10_4/uL
- RBC [1]: 643 x10_4/ul
- Ret [1]: 5.3%
- WBC [1]: 44.1 x10_2/uL
- APTT (15 mg/kg, 24 h, dose level Low): 17.5 s
- Fbg (15 mg/kg, 24 h, dose level Low): 286.4 mg/dL
- Hb (15 mg/kg, 24 h, dose level Low): 12.9 g/dL
- Ht (15 mg/kg, 24 h, dose level Low): 38.1%
- Lym (15 mg/kg, 24 h, dose level Low): 85.4%
- MCH (15 mg/kg, 24 h, dose level Low): 20.7 pg
- MCHC (15 mg/kg, 24 h, dose level Low): 34%
- MCV (15 mg/kg, 24 h, dose level Low): 60.9 fL
- Mono (15 mg/kg, 24 h, dose level Low): 2%
- Neu (15 mg/kg, 24 h, dose level Low): 11.2%
- PT (15 mg/kg, 24 h, dose level Low): 14.1 s
- Plat (15 mg/kg, 24 h, dose level Low): 116.3 x10_4/uL
- RBC (15 mg/kg, 24 h, dose level Low): 625.2 x10_4/ul
- Ret (15 mg/kg, 24 h, dose level Low): 6.8%
- WBC (15 mg/kg, 24 h, dose level Low): 48.9 x10_2/uL
- KIDNEY_L [1]: 0.9 g
- KIDNEY_R [1]: 0.9 g
- KIDNEY_TOTAL [1]: 1.8 g
- LIVER [1]: 8.6 g
- LIVER (15 mg/kg, 24 h, dose level Low): 9.1 g
- ALP [1]: 1751 IU/L
- ALT [1]: 45 IU/L
- AST [1]: 71 IU/L
- BUN [1]: 14.6 mg/dL
- CRE [1]: 0.2 mg/dL
- Ca [1]: 10.8 mg/dL
- Cl [1]: 104.8 meq/L
- DBIL [1]: 0.006 mg/dL
- GLC [1]: 179 mg/dL
- IP [1]: 8.4 mg/dL
- K [1]: 4.3 meq/L
- LDH [1]: 195.4 IU/L
- Na [1]: 142.4 meq/L
- PL [1]: 143.6 mg/dL
- RALB [1]: 3.1 g/dL
- TBIL [1]: 0.02 mg/dL
- TC [1]: 75 mg/dL
- TP [1]: 5.5 g/dL
- gamma-GTP [1]: 1.2 IU/L
- ALP (15 mg/kg, 24 h, dose level Low): 1404.4 IU/L
- ALT (15 mg/kg, 24 h, dose level Low): 40.2 IU/L
- AST (15 mg/kg, 24 h, dose level Low): 71.4 IU/L
- BUN (15 mg/kg, 24 h, dose level Low): 14.4 mg/dL
- Ca (15 mg/kg, 24 h, dose level Low): 11.1 mg/dL
- Cl (15 mg/kg, 24 h, dose level Low): 105.2 meq/L
- DBIL (15 mg/kg, 24 h, dose level Low): 0.02 mg/dL
- GLC (15 mg/kg, 24 h, dose level Low): 176.4 mg/dL
- IP (15 mg/kg, 24 h, dose level Low): 8.1 mg/dL
- K (15 mg/kg, 24 h, dose level Low): 4.5 meq/L
- LDH (15 mg/kg, 24 h, dose level Low): 82 IU/L
- Na (15 mg/kg, 24 h, dose level Low): 140.8 meq/L
- PL (15 mg/kg, 24 h, dose level Low): 159.4 mg/dL
- RALB (15 mg/kg, 24 h, dose level Low): 2.6 g/dL
- TBIL (15 mg/kg, 24 h, dose level Low): 0.06 mg/dL
- TC (15 mg/kg, 24 h, dose level Low): 87.6 mg/dL
- TP (15 mg/kg, 24 h, dose level Low): 5.6 g/dL
- gamma-GTP (15 mg/kg, 24 h, dose level Low): 1 IU/L
- TERMINAL_BW [2]: 190.4 g
- APTT [2]: 20 s
- Bas [2]: 0%
- Eos [2]: 0.8%
- Fbg [2]: 281.6 mg/dL
- Hb [2]: 13 g/dL
- Ht [2]: 38.9%
- Lym [2]: 78%
- MCH [2]: 20.6 pg
- MCHC [2]: 33.4%
- MCV [2]: 61.6 fL
- Mono [2]: 2.6%
- Neu [2]: 17.6%
- PT [2]: 13.8 s
- Plat [2]: 111.1 x10_4/uL
- RBC [2]: 631.6 x10_4/ul
- Ret [2]: 9.2%
- WBC [2]: 101.7 x10_2/uL
- KIDNEY_L [2]: 0.8 g
- KIDNEY_R [2]: 0.8 g
- KIDNEY_TOTAL [2]: 1.6 g
- LIVER [2]: 8.3 g
- ALP [2]: 1500.2 IU/L
- ALT [2]: 35.8 IU/L
- AST [2]: 72.6 IU/L
- BUN [2]: 10 mg/dL
- CRE [2]: 0.2 mg/dL
- Ca [2]: 11.1 mg/dL
- Cl [2]: 104.8 meq/L
- DBIL [2]: 0.018 mg/dL
- GLC [2]: 171.8 mg/dL
- IP [2]: 8.7 mg/dL
- K [2]: 4.4 meq/L
- LDH [2]: 72.6 IU/L
- Na [2]: 140.2 meq/L
- PL [2]: 160.4 mg/dL
- RALB [2]: 2.4 g/dL
- TBIL [2]: 0.068 mg/dL
- TC [2]: 86.6 mg/dL
- TP [2]: 5.3 g/dL
- gamma-GTP [2]: 1.4 IU/L
- TERMINAL_BW [3]: 187.5 g
- APTT [3]: 17.2 s
- Bas [3]: 0%
- Eos [3]: 0.6%
- Fbg [3]: 278.4 mg/dL
